Converted amounts (≈) assume the structure as drawn. Where two headings read alike, the source gives them in different places.
Tests used:
[1] = system: S. aureus FDA209P (ATCC 6538P); assay: microbe, parasite or virus in culture; type: cell-based, Staphylococcus aureus; details: quinolone-susceptible MSSA, ParC 80S, GyrA 84S
Procedure: (§1) Then, the cell suspension was diluted 500 times with CAMHB mentioned above.

S. aureus Mu50 = assay: microbe, parasite or virus in culture; type: cell-based, Staphylococcus aureus; details: for MIC ratio (Mu50 MIC/FDA209P MIC): MIC for S. aureus Mu50 / MIC for S. aureus FDA209P; for MIC: S. aureus Mu50, quinolone-resistant MRSA, ParC S80F, GyrA S84L
Procedure: as §1

E. coli strain 1709 = assay: Antibacterial activity against Escherichia coli
Source text: (§6) The numerical values in the tables indicate MIC (mg/L), Res means resistant bacterium, and Sus means susceptible bacterium.
(§7) Antibacterial activities against Escherichia coli of the compounds shown Table 19 were examined by the following method.
(§8) After completion of the culture, the cells were suspended in fresh TBS to prepare a cell suspension showing an absorbance of 0.3 at 578 nm.

E. coli strain 1708 = assay: Antibacterial activity against Escherichia coli
Source text: as §6, §7, §8

S. pneumoniae BCLSP37 = assay: MIC against pneumococcus, CAMHB with 5 mass % LHB; type: cell-based, Streptococcus pneumoniae; details: Streptococcus pneumoniae, BCLSP37, S. pneumoniae BCLSP37, PSSP, quinolone-resistant; ParC 79Phe, GyrA 85Lys; read-out: MIC
Procedure: (§2) The S. pneumoniae strains used for this test belong to any one of the categories of penicillin-susceptible pneumococcus (penicillin-susceptible Streptococcus pneumoniae, PSSP), penicillin-intermediate pneumococcus (penicillin-intermediate Streptococcus pneumoniae, PISP), and penicillin-resistant pneumococcus (penicillin-resistant Streptococcus pneumoniae, PRSP).
(§3) The lysed horse blood was prepared by adding sterilized water to horse sterile defibered blood (produced by Nippon Bio-Supp. Center) at a ratio of 1:1, subjecting the mixture to freezing and thawing 5 times, then centrifuging the mixture twice at 10,000 rpm for 20 minutes, and filtering the supernatant through a filter.
(§4) The S. pneumoniae strains mentioned in Table 11 were each cultured overnight at 37° C. on a blood agar medium as stationary culture. The blood agar medium was prepared by adding 5 mass % ovine sterile defibered blood (produced by Nippon Bio-Supp. Center) to a heart infusion agar medium (produced by EIKEN CHEMICAL). Each S. pneumoniae strain cultured overnight at 37° C. as stationary culture was further subcultured overnight at 37° C. on fresh blood agar medium as stationary culture. After completion of the culture, cells of each pneumococcus strain were collected with a swab, and suspended in physiological saline, and the suspension was adjusted with physiological saline to show absorbance of 0.08 to 0.13 at 625 nm as measured with an absorbance meter (produced by Amersham), and further diluted 200 times with CAMHB containing 5 mass % LHB.
(§5) In Table 11, the amino acid substitution mutations in QRDR of the strains are underlined.

S. pneumoniae KBSP11 = assay: MIC against pneumococcus, CAMHB with 5 mass % LHB; type: cell-based, Streptococcus pneumoniae; details: Streptococcus pneumoniae, PRSP
Procedure: as §2, §3, §4, §5

[2] = Staphylococcus aureus, ATCC 6538P / FDA209P / MSSA, read-out: MIC

Row | SMILES | MIC [1] [µg/mL] | MIC ratio (Mu50 MIC/FDA209P MIC) (S. aureus Mu50) | MIC (S. aureus Mu50) [µg/mL] | MIC [1, 2] [µg/mL] | MIC (S. aureus Mu50; Staphylococcus aureus, MRSA) [µg/mL] | MIC (E. coli strain 1709) [µg/mL] | MIC (E. coli strain 1708) [µg/mL] | MIC (S. pneumoniae BCLSP37) [µg/mL] | MIC (S. pneumoniae KBSP11) [µg/mL]
1 | CC(=O)N1COc2c1ccc1c(CO)cc(=O)n(C)c21 [J-125a, 3-acetyl-6-(hydroxymethyl)-9-methyl-8-oxo 9-hydro-2H-1,3-oxazolino[4,5-h]quinoline] | 128 (≈ 467 µM) | 0.125 | 16 (≈ 58.3 µM) |  |  |  |  |  | 
2 | Nc1ccc(-c2cc3c(cc2F)c(COC(=O)CCC(=O)O)cc(=O)n3C2CC2)cc1 [J-136, 3-({[7-(4-aminophenyl)-1-cyclopropyl-6-fluoro-2-oxo-4-hydroquinolyl]methyl}oxycarbonyl)propanoic acid] | 32 (≈ 75.4 µM) | 0.25 | 8 (≈ 18.8 µM) |  |  |  |  |  | 
3 | Cn1c(=O)cc(CO)c2cc(F)c(-c3ccc(O)cc3)cc21 [J-131, 6-fluoro-4-(hydroxymethyl)-7-(4-hydroxyphenyl)-1-methylhydroquinolin-2-one] | 16 (≈ 53.5 µM) | 0.25 | 4 (≈ 13.4 µM) |  |  |  |  |  | 
4 | Nc1ccc(-c2cc3c(cc2F)c(COC(=O)CC(=O)O)cc(=O)n3C2CC2)cc1 [J-135, 2-({[7-(4-aminophenyl)-1-cyclopropyl-6-fluoro-2-oxo-4-hydroquinolyl]methyl}oxycarbonyl)acetic acid] | 8 (≈ 19.5 µM) | 1 | 8 (≈ 19.5 µM) |  |  |  |  |  | 
5 | O=c1cc(CO)c2ccc(-c3ccc(O)cc3)c3c2n1CO3 [J-2.1.2, 6-(hydroxymethyl)-9-(4-hydroxyphenyl)oxazolo[5,4,3-ij]quinolin-4(2H)-one] |  | 0.125 |  | 128 (≈ 433 µM) | 16 (≈ 54.2 µM) |  |  |  | 
6 | C[C@H]1COc2c(-c3ccc(O)cc3)c(F)cc3c(CO)cc(=O)n1c23 [J-149A] |  |  |  | 0.25 (≈ 0.732 µM) | 0.5 (≈ 1.46 µM) | 16 (≈ 46.9 µM) | 128 (≈ 375 µM) |  | 
7 | COc1c(-c2ccc(O)cc2)ccc2c(CO)cc(=O)n(C3CC3)c12 [J-157, 1-cyclopropyl-8-methoxyl-4-(hydroxymethyl)-7-(4-hydroxyphenyl)hydroquinolin-2-one] | 4 (≈ 11.9 µM) | 0.5 | 2 (≈ 5.93 µM) |  |  |  |  |  | 
8 | Cn1c(=O)cc(CO)c2ccc3c(c21)OCO3 [J-103, 6-(hydroxymethyl)-9-methyl-9-hydro-2H-1,3-dioxoleno[4,5-h]quinolin-8-one] | 128 (≈ 549 µM) | 0.125 | 16 (≈ 68.6 µM) |  |  |  |  |  | 
9 | COCc1cc(=O)n(C2CC2)c2cc(-c3ccc(O)cc3)c(F)cc12 [J-175] |  |  |  | 1 (≈ 2.95 µM) | 0.5 (≈ 1.47 µM) | 128 (≈ 377 µM) | 128 (≈ 377 µM) | 8 (≈ 23.6 µM) | 32 (≈ 94.3 µM)
10 | O=c1cc(CO)c2cc(Cl)c(-c3ccc(O)cc3)cc2n1C1CC1 [J-152] |  |  |  | 1 (≈ 2.93 µM) | 0.25 (≈ 0.731 µM) | 128 (≈ 374 µM) | 128 (≈ 374 µM) |  | 
11 | O=c1cc(CO)c2cc(F)c(N3CCC(O)CC3)cc2n1C1CC1 [J-147, 1-cyclopropyl-6-fluoro-4-(hydroxymethyl)-7-(4-hydroxypiperidin-1-yl)quinolin-2(1H)-one] |  | 0.5 |  | 32 (≈ 96.3 µM) | 16 (≈ 48.1 µM) |  |  |  | 
12 | CCc1cc(=O)n(C2CC2)c2cc(-c3ccc(O)cc3)c(F)cc12 [J-150, 1-cyclopropyl-4-ethyl-6-fluoro-7-(4-hydroxyphenyl)hydroquinolin-2-one] | 4 (≈ 12.4 µM) | 0.0625 | 0.25 (≈ 0.773 µM) |  |  |  |  |  | 
13 | CNc1ncc(-c2ccc3c(CO)cc(=O)n(C4CC4)c3c2)cc1C [J-165] |  |  |  | 4 (≈ 11.9 µM) | 8 (≈ 23.9 µM) | 128 (≈ 382 µM) | 128 (≈ 382 µM) |  | 
14 | O=C(O)c1c(CO)c2cc(F)c(-c3ccc(O)cc3)cc2n(C2CC2)c1=O [J-169] |  |  |  | 8 (≈ 21.7 µM) | 8 (≈ 21.7 µM) | 16 (≈ 43.3 µM) | 128 (≈ 347 µM) |  | 

Source: patent US20160257651A1, “NOVEL COMPOUND WITH ANTIBACTERIAL ACTIVITY” (priority 2013, published 2016)
